Reference: patent US10041953B2, “Mass spectrometric determination of drug resistance” (priority 2013, dated 2018)
In brackets after ≈: the same amount, converted by molar mass.

Key:
Assay type in all cases: cell-based
[1] = system: salmonella wild type (13471); assay: MIC for ciprofloxacin, wild type (13471); conditions: wild type gyrase
Salmonella strain 17109 = assay: MIC for ciprofloxacin, Salmonella strain 17109; conditions: Salmonella strain 17109, one gyrase amino acid substitution
Salmonella strain 6836 = assay: MIC for ciprofloxacin, Salmonella strain 6836; conditions: Salmonella strain 6836, double gyrase mutation
Salmonella strain 19222 = assay: MIC for ciprofloxacin, Salmonella strain 19222; conditions: Salmonella strain 19222, one gyrase amino acid substitution

O=C(O)c1cn(C2CC2)c2cc(N3CCNCC3)c(F)cc2c1=O [ciprofloxacin]
MIC [1]: 0.03 µg/mL (≈ 0.0905 µM)
MIC (Salmonella strain 17109): 1 µg/mL (≈ 3.02 µM)
MIC (Salmonella strain 6836): 32 µg/mL (≈ 96.6 µM)
MIC (Salmonella strain 19222): 1 µg/mL (≈ 3.02 µM)
